Source: ChEMBL document CHEMBL5356932, “Research and development of N,N'-diarylureas as anti-tumor agents” (RSC Med Chem, 2023)
pIC50: −log10 of the molar value. One block for each compound: values may come before it.

Legend:
[1] = Cytotoxicity against HUVEC cells assessed as reduction in cell viability and measured after 24 hrs by MTT assay; assay type: toxicity, cell-based; details: human
[2] = Inhibition of angiogenesis in HUVEC cells assessed as reduction in capillary tube formation after 6 hrs by phase contrast microscopy; assay type: functional, cell-based; details: Homo sapiens
[3] = biological target: T1, Vascular endothelial growth factor receptor 2 (Homo sapiens, UniProt P35968); experiment: Inhibition of VEGFR2 in HUVEC cells; assay type: cell-based
HUVEC [4] = experiment: Anti-angiogenesis activity in HUVEC cells; assay type: functional, cell-based; details: Homo sapiens
EA.hy 926 = experiment: Antiproliferative activity against human EA.hy 926 cells assessed as reduction in cell viability incubated for 48 hrs by MTT assay; assay type: functional, cell-based; details: EA.hy 926, 48 h
HUVEC [5] = experiment: Antiproliferative activity against HUVEC cells assessed as reduction in cell viability measured after 48 hrs by MTT assay; assay type: functional, cell-based; details: Homo sapiens
A549 = experiment: Antiproliferative activity against human A549 cells assessed as reduction in cell viability measured after 48 hrs by MTT assay; assay type: functional, cell-based; details: A549, 48 h
NCI-H1975 = experiment: Antiproliferative activity against human NCI-H1975 cells assessed as reduction in cell viability measured after 48 hrs by MTT assay; assay type: functional, cell-based; details: NCI-H1975, 48 h
Angiopoietin-1 receptor = Angiopoietin-1 receptor (Homo sapiens, UniProt Q02763); experiment: Inhibition of TIE2 (unknown origin)
[6] = biological target: T1, Vascular endothelial growth factor receptor 2; experiment: Inhibition of human VEGFR
MCF7 [7] = experiment: Antiproliferative activity against human MCF7 cells assessed as cell growth inhibition; assay type: functional, cell-based
MDA-MB-231 = experiment: Antiproliferative activity against human MDA-MB-231 cells assessed as cell growth inhibition; assay type: functional, cell-based
HepG2 = experiment: Cytotoxicity against human HepG2 cells assessed as reduction in cell viability incubated for 24 hrs by MTT assay; assay type: functional, cell-based; details: HepG2, 24 h
MCF7 [8] = experiment: Cytotoxicity against human MCF7 cells assessed as reduction in cell viability incubated for 24 hrs by MTT assay; assay type: functional, cell-based; details: MCF7, 24 h

T1 sequence (P35968 whole entry): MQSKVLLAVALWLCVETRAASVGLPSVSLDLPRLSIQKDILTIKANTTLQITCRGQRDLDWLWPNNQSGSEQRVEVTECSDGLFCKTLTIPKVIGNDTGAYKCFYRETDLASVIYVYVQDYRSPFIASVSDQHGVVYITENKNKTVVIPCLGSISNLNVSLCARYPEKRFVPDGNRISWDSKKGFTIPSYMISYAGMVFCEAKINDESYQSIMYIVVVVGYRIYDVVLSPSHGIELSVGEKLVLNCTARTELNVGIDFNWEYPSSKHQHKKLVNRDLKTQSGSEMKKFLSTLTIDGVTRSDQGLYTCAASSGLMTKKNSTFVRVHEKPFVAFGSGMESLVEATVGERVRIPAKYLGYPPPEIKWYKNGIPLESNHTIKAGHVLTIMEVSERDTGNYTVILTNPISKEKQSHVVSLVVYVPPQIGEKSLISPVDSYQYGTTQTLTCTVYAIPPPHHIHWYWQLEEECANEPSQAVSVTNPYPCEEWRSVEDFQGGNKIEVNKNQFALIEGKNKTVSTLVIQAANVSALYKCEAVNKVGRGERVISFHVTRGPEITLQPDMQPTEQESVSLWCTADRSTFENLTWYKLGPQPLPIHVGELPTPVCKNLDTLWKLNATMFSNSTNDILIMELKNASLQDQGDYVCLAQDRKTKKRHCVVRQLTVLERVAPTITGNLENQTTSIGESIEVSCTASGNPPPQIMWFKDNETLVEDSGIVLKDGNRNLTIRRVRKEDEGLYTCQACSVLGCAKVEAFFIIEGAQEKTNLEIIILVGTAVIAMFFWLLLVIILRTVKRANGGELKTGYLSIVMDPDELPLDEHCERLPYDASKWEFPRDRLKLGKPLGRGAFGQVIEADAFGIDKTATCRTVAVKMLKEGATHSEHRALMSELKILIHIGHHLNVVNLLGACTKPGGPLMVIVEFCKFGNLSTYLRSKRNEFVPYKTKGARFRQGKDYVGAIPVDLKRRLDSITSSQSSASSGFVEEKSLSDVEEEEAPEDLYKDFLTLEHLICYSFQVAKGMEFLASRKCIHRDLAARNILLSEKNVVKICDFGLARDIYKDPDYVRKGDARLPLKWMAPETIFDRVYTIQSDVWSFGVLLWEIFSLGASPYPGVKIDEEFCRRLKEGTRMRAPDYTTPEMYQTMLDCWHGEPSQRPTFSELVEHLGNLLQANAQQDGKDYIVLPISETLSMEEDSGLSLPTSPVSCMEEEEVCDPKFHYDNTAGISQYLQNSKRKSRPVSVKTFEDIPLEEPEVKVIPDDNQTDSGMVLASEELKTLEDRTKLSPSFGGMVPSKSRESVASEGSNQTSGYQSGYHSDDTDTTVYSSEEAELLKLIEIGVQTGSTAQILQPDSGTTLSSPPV
Chain of Angiopoietin-1 receptor (Q02763 whole entry): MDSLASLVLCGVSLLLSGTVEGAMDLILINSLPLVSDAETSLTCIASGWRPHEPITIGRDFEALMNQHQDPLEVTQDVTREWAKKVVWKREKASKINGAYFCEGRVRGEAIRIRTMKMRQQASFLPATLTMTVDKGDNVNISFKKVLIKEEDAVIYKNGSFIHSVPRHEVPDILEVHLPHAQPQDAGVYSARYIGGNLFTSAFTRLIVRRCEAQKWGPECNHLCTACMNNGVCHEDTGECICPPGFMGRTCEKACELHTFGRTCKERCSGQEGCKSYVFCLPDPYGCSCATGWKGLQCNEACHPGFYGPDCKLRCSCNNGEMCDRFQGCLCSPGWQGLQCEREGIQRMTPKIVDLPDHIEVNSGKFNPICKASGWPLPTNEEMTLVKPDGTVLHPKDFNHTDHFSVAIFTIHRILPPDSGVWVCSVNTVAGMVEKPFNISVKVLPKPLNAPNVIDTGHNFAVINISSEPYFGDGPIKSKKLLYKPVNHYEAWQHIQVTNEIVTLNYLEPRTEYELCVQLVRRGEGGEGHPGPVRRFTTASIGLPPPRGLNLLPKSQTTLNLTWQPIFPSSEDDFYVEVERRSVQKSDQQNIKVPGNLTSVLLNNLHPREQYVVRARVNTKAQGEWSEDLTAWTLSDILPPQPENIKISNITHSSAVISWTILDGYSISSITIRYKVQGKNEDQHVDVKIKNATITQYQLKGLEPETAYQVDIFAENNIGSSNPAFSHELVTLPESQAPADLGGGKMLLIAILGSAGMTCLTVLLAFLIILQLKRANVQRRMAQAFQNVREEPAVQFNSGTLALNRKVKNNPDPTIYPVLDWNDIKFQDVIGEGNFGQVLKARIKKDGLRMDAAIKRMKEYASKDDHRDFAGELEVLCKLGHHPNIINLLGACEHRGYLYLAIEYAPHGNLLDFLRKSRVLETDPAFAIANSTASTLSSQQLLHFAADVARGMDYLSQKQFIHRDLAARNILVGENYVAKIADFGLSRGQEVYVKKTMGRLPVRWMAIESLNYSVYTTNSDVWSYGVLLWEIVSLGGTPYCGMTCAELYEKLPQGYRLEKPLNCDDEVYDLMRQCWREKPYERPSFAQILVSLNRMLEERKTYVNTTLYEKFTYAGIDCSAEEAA

Structure (SMILES): Cc1nc(Nc2ccc(NC(=O)Nc3ccc(F)c(Cl)c3)cc2)c2nc(-c3ccc(OCCCN4CCN(C)CC4)cc3)oc2n1
IC50 at 24 h [1]: 12.4 µM

pIC50 [2]: 5.28
pIC50 [3]: 4.14
Structure (SMILES): Cc1nc(Nc2ccc(NC(=O)Nc3cccc(F)c3)cc2)c2nc(-c3ccccc3)sc2n1
pIC50 (HUVEC [4]): 5.28

Structure (SMILES): O=C(Nc1ccc(-c2cccc(NC(=O)C3CC3)n2)cc1)Nc1cccc(C(F)(F)F)c1
pIC50 (EA.hy 926): 4.79

pIC50 (A549): 5.12
pIC50 (NCI-H1975): 5.85
Structure (SMILES): O=C(Nc1ccc(OC(F)(F)F)cc1)Nc1ccc2nc(-c3ccccc3Cl)oc2c1
pIC50 (HUVEC [5]): 5.07

Structure (SMILES): O=C(Nc1ccc(-c2cccc(NC(=O)C3CC3)n2)cc1)Nc1ccc(Cl)c(C(F)(F)F)c1
pIC50 (EA.hy 926): 4.84

Structure (SMILES): CNC(=O)c1cc(Oc2ccc(NC(=O)Nc3ccc(Cl)c(C(F)(F)F)c3)cc2)ccn1 [SORAFENIB]
pIC50 (HUVEC [4]): 4.14

pIC50 (Angiopoietin-1 receptor): 8.16
pIC50 [6]: 5.46
Structure (SMILES): COC(=O)Nc1nc2cc(Oc3ccc(NC(=O)Nc4cc(F)ccc4C(F)(F)F)cc3)ccc2[nH]1

pIC50 (MCF7 [7]): 5.92
pIC50 (MDA-MB-231): 5.30
Structure (SMILES): O=C(Nc1cccc(Sc2ccnc3ccsc23)c1)Nc1cccc(C(F)(F)F)c1

Structure (SMILES): CSc1cccc(NC(=O)Nc2ccc(Oc3ccc4[nH]c(=O)c(=O)[nH]c4c3)cc2C)c1
pIC50 (HepG2): 4.77
pIC50 (MCF7 [8]): 4.85
